PubChem BioAssay AID1963840 (Molecular Pharmacology Branch, DTP, NCI, 2024)

System: 695427-040-R-J1-PDC complex spheroid viability
Assay: Anticancer human tumor 695427-040-R-J1-PDC patient-derived colon adenocarcinoma cell line growth inhibition [POLQ]
Conditions: for IC50: curve of first compound; for viability, T/C: stronger effect = lower value
Protocol: Multicellular complex tumor spheroid response to Polymerase (POL) inhibitors (novobiocin, ART-558, RP6685) in combination with a variety of drugs and investigational agents in selected tumor cell lines
The POL inhibitors (novobiocin, ART-558, and RP6685) were evaluated both individually and in combination with standard of care and investigational anticancer small molecules within a complex spheroid model of solid tumors. . Complex spheroids include a stromal component modeled by human endothelial cells (HUVEC) and fibroblasts modeled by human mesenchymal stem cells (MSCs). The concentration ranges selected for each drug and investigational agent were based upon clinically achievable concentrations if the clinical Cmax of the agent was known.
Compounds. The drugs and investigational agents: novobiocin (NSC847541), ART-558 (NSC835418), RP-6685 (NSC848927), peposertib (NSC802822), ceralasertib (NSC780249), elimusertib (NSC800525), camonsertib (NSC841442), AZD-1390 (NSC803789), olaparib (NSC753686), talazoparib (NSC767125), rucaparib (NSC756644), sotorasib (NSC818433), MRTX-1133 (NSC836407), SN-38 (NSC673596), topotecan (NSC609699), epotoside (NSC141540), doxorubicin (NSC123127), gemcitabine (NSC613327), 5-fluorouracil (NSC19893), paclitaxel (NSC125973), vemurafenib (NSC761431), MSA-2 (NSC828583), SN-011 (NSC837082), adavosertib (NSC754352), prexasertib (NSC758257), carboplatin (NSC241240) and oxaliplatin (NSC266046), were obtained from the National Cancer Institute (NCI) Developmental Therapeutics Program Chemical Repository (21). The FDA-approved anticancer drug set is available from the Developmental Therapeutics Program at https://dtp.cancer.gov/organization/dscb/obtaining/. […] The stock solutions were prepared in dimethyl sulfoxide (DMSO, Sigma-Aldrich, St. Louis, MO, cat. D2650), except for the platinum compounds which were prepared in saline (Quality Biological, Gaithersburg, MD, cat. 114-055-101), at 800-fold the tested concentration and stored at -70 degrees C prior to their use. All drugs and investigational agents were tested over a range starting from a high concentration at or near the clinical Cmax and decreasing in half-log increments. If the clinical Cmax for an agent had not been determined, the highest concentration tested was 10 microM, except for SN-38, which was tested at a high concentration of 1 microM.
Cell Culture. All cells were maintained in an incubator at 37 degrees C and 5% CO2 with 95% humidity. The PDC lines were cultured according to standard operating procedures established by the NCI PDMR (https://pdmr.cancer.gov). Table 3 of the manuscript, lists the cell lines along with the number of the three cell types plated to form the mct-spheroids and media for tumor cell growth. After thawing, all PDC lines, except 997537-175-T-J1-PDC and 415267-285-R-J2-PDC, were cultured in Matrigel-coated flasks prepared with a working solution of 1X Ham's F-12 nutrient mix, without supplementation (Thermo Fisher Scientific, cat. 11765054), 100 U/mL penicillin-streptomycin (Thermo Fisher Scientific, cat. 15140122), and 2.5% Matrigel (Corning Inc., Corning, NY, cat. 354248) for the first three passages. The two PDC lines 997537-175-T-J1-PDC and 415267-285-R-J2-PDC were cultured on uncoated flasks. The 857933-349-R-J2-PDC line was cultured in 6C/Colon 1B media containing advanced DMEM/F-12 (Thermo Fisher Scientific, cat. 12634028), 10 mM HEPES (Thermo Fisher Scientific, cat. 15630080), 1X GlutaMAX supplement (Thermo Fisher Scientific, cat. 35050061), 0.1 mg/mL primocin (InvivoGen, San Diego, CA, cat. ant-pm-2), 10% defined fetal bovine serum, heat inactivated (HyClone Laboratories Inc., Logan, UT, cat. SH30070.03HI), 50% L-WRN conditioned media (ATCC, cat. CRL-3276), 1.25 mM N-Acetyl-L-cysteine (Sigma-Aldrich, cat. A9165), 10 mM nicotinamide (Sigma-Aldrich, cat. N0636), 1X B-27 supplement (Thermo Fisher Scientific, cat. 17504044), 1X N-2 supplement (Thermo Fisher Scientific, cat. […]

[1] = second compound 0.0316 µM, first compound 0.0316 µM
[2] = second compound 0.0316 µM, first compound 0.1 µM
[3] = second compound 0.0316 µM, first compound 0.316 µM
[4] = second compound 0.0316 µM, first compound 1 µM
[5] = second compound 0.0316 µM, first compound 3.16 µM
[6] = second compound 0.0316 µM, first compound 10 µM
[7] = second compound 0.1 µM, first compound 0.0316 µM
[8] = second compound 0.1 µM, first compound 0.1 µM
[9] = second compound 0.1 µM, first compound 0.316 µM
[10] = second compound 0.1 µM, first compound 1 µM
[11] = second compound 0.1 µM, first compound 3.16 µM
[12] = second compound 0.1 µM, first compound 10 µM
[13] = second compound 0.316 µM, first compound 0.0316 µM
[14] = second compound 0.316 µM, first compound 0.1 µM
[15] = second compound 0.316 µM, first compound 0.316 µM
[16] = second compound 0.316 µM, first compound 1 µM
[17] = second compound 0.316 µM, first compound 3.16 µM
[18] = second compound 0.316 µM, first compound 10 µM
[19] = second compound 1 µM, first compound 0.0316 µM
[20] = second compound 1 µM, first compound 0.1 µM
[21] = second compound 1 µM, first compound 0.316 µM
[22] = second compound 1 µM, first compound 1 µM
[23] = second compound 1 µM, first compound 3.16 µM
[24] = second compound 1 µM, first compound 10 µM
[25] = second compound 3.16 µM, first compound 0.0316 µM
[26] = second compound 3.16 µM, first compound 0.1 µM
[27] = second compound 3.16 µM, first compound 0.316 µM
[28] = second compound 3.16 µM, first compound 1 µM
[29] = second compound 3.16 µM, first compound 3.16 µM
[30] = second compound 3.16 µM, first compound 10 µM
[31] = second compound 10 µM, first compound 0.0316 µM
[32] = second compound 10 µM, first compound 0.1 µM
[33] = second compound 10 µM, first compound 0.316 µM
[34] = second compound 10 µM, first compound 1 µM
[35] = second compound 10 µM, first compound 3.16 µM
[36] = second compound 10 µM, first compound 10 µM
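Further: spheroids exposed to compounds for seven days.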
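Wherever viability, T/C is given: 100% = DMSO vehicle control viability.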

With `CC(C)n1c(=O)n(C)c2cnc3cc(F)c(-c4ccc(OCCCN5CCCCC5)nc4)cc3c21` + COC1C(OC(N)=O)C(O)C(Oc2ccc3c(O)c(NC(=O)c4ccc(O)c(CC=C(C)C)c4)c(=O)oc3c2C)OC1(C)C the IC50 (second compound 0.0316 µM) was > 10 µM, the IC50 (second compound 0.1 µM) was > 10 µM and the IC50 (second compound 0.316 µM) was > 10 µM. The IC50 (second compound 1 µM) was > 10 µM, the IC50 (second compound 3.16 µM) was > 10 µM and the IC50 (second compound 10 µM) was > 10 µM. For the same compound, the viability, T/C [1] was 99.3%, the viability, T/C [2] was 98.7% and the viability, T/C [3] was 109%. It also gave a viability, T/C [4] of 113%, a viability, T/C [5] of 110% and a viability, T/C [6] of 82.6%. For the same compound, the viability, T/C [7] was 114%, the viability, T/C [8] was 101% and the viability, T/C [9] was 112%. The viability, T/C [10] was 118%, the viability, T/C [11] was 101% and the viability, T/C [12] was 80.1%. The viability, T/C [13] was 111%, the viability, T/C [14] was 103% and the viability, T/C [15] was 110%. For the same compound, the viability, T/C [16] was 101%, the viability, T/C [17] was 114% and the viability, T/C [18] was 74.4%. For the same compound, the viability, T/C [19] was 110%, the viability, T/C [20] was 104% and the viability, T/C [21] was 108%. It also gave a viability, T/C [22] of 112%, a viability, T/C [23] of 105% and a viability, T/C [24] of 77.2%. The viability, T/C [25] was 106%, the viability, T/C [26] was 102% and the viability, T/C [27] was 103%. The viability, T/C [28] was 109%, the viability, T/C [29] was 102% and the viability, T/C [30] was 79%. For the same compound, the viability, T/C [31] was 106%, the viability, T/C [32] was 99.5% and the viability, T/C [33] was 110%. It also gave a viability, T/C [34] of 113%, a viability, T/C [35] of 114% and a viability, T/C [36] of 77.6%.
`CCc1cc2c(N3CCc4c(cc(Cn5ccnc5)cc4-c4cn(C)nc4C(F)(F)F)C3=O)cc(C)nc2c(OC)n1` + COC1C(OC(N)=O)C(O)C(Oc2ccc3c(O)c(NC(=O)c4ccc(O)c(CC=C(C)C)c4)c(=O)oc3c2C)OC1(C)C was tested, and the IC50 (second compound 0.0316 µM) was > 10 µM, the IC50 (second compound 0.1 µM) was > 10 µM and the IC50 (second compound 0.316 µM) was > 10 µM. For the same compound, the IC50 (second compound 1 µM) was > 10 µM, the IC50 (second compound 3.16 µM) was > 10 µM and the IC50 (second compound 10 µM) was > 10 µM. It also gave a viability, T/C [1] of 106%, a viability, T/C [2] of 103% and a viability, T/C [3] of 111%. It also gave a viability, T/C [4] of 107%, a viability, T/C [5] of 108% and a viability, T/C [6] of 99.1%. The viability, T/C [7] was 114%, the viability, T/C [8] was 104% and the viability, T/C [9] was 105%. It also gave a viability, T/C [10] of 96.5%, a viability, T/C [11] of 111% and a viability, T/C [12] of 117%. The viability, T/C [13] was 107%, the viability, T/C [14] was 112% and the viability, T/C [15] was 106%. It also gave a viability, T/C [16] of 109%, a viability, T/C [17] of 110% and a viability, T/C [18] of 97.8%. It also gave a viability, T/C [19] of 108%, a viability, T/C [20] of 108% and a viability, T/C [21] of 105%. It also gave a viability, T/C [22] of 101%, a viability, T/C [23] of 120% and a viability, T/C [24] of 99.3%. The viability, T/C [25] was 117%, the viability, T/C [26] was 109% and the viability, T/C [27] was 113%. For the same compound, the viability, T/C [28] was 105%, the viability, T/C [29] was 115% and the viability, T/C [30] was 97.3%. For the same compound, the viability, T/C [31] was 116%, the viability, T/C [32] was 118% and the viability, T/C [33] was 110%. For the same compound, the viability, T/C [34] was 109%, the viability, T/C [35] was 117% and the viability, T/C [36] was 122%.
`COc1cc2cc(C(=O)CCC(=O)O)sc2cc1OC` + COC1C(OC(N)=O)C(O)C(Oc2ccc3c(O)c(NC(=O)c4ccc(O)c(CC=C(C)C)c4)c(=O)oc3c2C)OC1(C)C was tested, and the IC50 (second compound 0.0316 µM) was > 10 µM, the IC50 (second compound 0.1 µM) was > 10 µM and the IC50 (second compound 0.316 µM) was > 10 µM. For the same compound, the IC50 (second compound 1 µM) was > 10 µM, the IC50 (second compound 3.16 µM) was > 10 µM and the IC50 (second compound 10 µM) was > 10 µM. The viability, T/C [1] was 98.3%, the viability, T/C [2] was 86.9% and the viability, T/C [3] was 101%. It also gave a viability, T/C [4] of 104%, a viability, T/C [5] of 112% and a viability, T/C [6] of 107%. The viability, T/C [7] was 117%, the viability, T/C [8] was 103% and the viability, T/C [9] was 106%. The viability, T/C [10] was 99.2%, the viability, T/C [11] was 109% and the viability, T/C [12] was 103%. For the same compound, the viability, T/C [13] was 108%, the viability, T/C [14] was 105% and the viability, T/C [15] was 99.8%. The viability, T/C [16] was 107%, the viability, T/C [17] was 101% and the viability, T/C [18] was 99.3%. It also gave a viability, T/C [19] of 104%, a viability, T/C [20] of 109% and a viability, T/C [21] of 100%. For the same compound, the viability, T/C [22] was 106%, the viability, T/C [23] was 101% and the viability, T/C [24] was 103%. It also gave a viability, T/C [25] of 102%, a viability, T/C [26] of 94.2% and a viability, T/C [27] of 97.4%. For the same compound, the viability, T/C [28] was 106%, the viability, T/C [29] was 103% and the viability, T/C [30] was 93.8%. For the same compound, the viability, T/C [31] was 102%, the viability, T/C [32] was 102% and the viability, T/C [33] was 114%. The viability, T/C [34] was 120%, the viability, T/C [35] was 104% and the viability, T/C [36] was 109%.
